Reference: ChEMBL document CHEMBL6071135, “New resorcylic acid derivatives of Lysimachia tengyuehensis against MRSA and VRE by interfering with bacterial metabolic imbalance” (Eur J Med Chem, 2024)
Converted amounts (≈) assume the structure as drawn. The source made the active and inactive calls. No cut-off for these calls is given here.

Columns and labels:
Staphylococcus aureus [1] = assay: Bactericidal activity against methicillin-resistant Staphylococcus aureus measured after 24 hrs by CLSI based broth microdilution method; type: functional
Enterococcus faecalis [2] = assay: Antibacterial activity against vancomycin-resistant Enterococcus faecalis ATCC51299 measured after 24 hrs by CLSI based broth microdilution method; type: functional
Enterococcus faecalis [3] = assay: Bactericidal activity against vancomycin-resistant Enterococcus faecalis ATCC51299 measured after 24 hrs by CLSI based broth microdilution method; type: functional
RAW264.7 = assay: Cytotoxicity against mouse RAW264.7 cells at 16 ug/ml incubated for 24 hrs by MTT assay; type: toxicity, cell-based; details: raw264.7, 24 h, dose 16 µg/ml
Staphylococcus aureus [4] = assay: Antibacterial activity against methicillin-resistant Staphylococcus aureus at sub-MIC concentration measured after 24 hrs by CLSI based broth microdilution method; type: functional, organism-based
Staphylococcus aureus [5] = assay: Bactericidal activity against methicillin-resistant Staphylococcus aureus assessed as reduction in number of bacteria at 2 times MIC measured within 15 mins by time-kill assay; type: functional, organism-based
Enterococcus faecalis [6] = assay: Bactericidal activity against vancomycin-resistant Enterococcus faecalis ATCC51299 assessed as reduction in number of bacteria at 2 times MIC measured within 15 mins by time-kill assay; type: functional, organism-based
Staphylococcus aureus [7] = assay: Bactericidal activity against methicillin-resistant Staphylococcus aureus assessed as reduction in number of bacteria at 1 time MIC measured within 40 mins by time-kill assay; type: functional, organism-based
Enterococcus faecalis [8] = assay: Bactericidal activity against vancomycin-resistant Enterococcus faecalis ATCC51299 assessed as reduction in number of bacteria at 1 time MIC measured within 40 mins by time-kill assay; type: functional, organism-based
Staphylococcus aureus [9] = assay: Antibacterial activity against methicillin-resistant Staphylococcus aureus measured after 20 passages by broth microdilution method; type: functional, organism-based
Enterococcus faecalis [10] = assay: Antibacterial activity against vancomycin-resistant Enterococcus faecalis ATCC51299 measured after 20 passages by broth microdilution method; type: functional, organism-based
Staphylococcus aureus [11] = assay: Induction of morphological changes in biofilm of methicillin-resistant Staphylococcus aureus assessed as appearance of destroyed biofilm at 1 to 4 times MIC incubated for 24 hrs by DAPI staining based fluorescence microscopy analysis; type: functional, organism-based
Staphylococcus aureus [12] = assay: Induction of morphological changes in biofilm of methicillin-resistant Staphylococcus aureus assessed as appearance of broken biofilm at 1 to 4 times MIC incubated for 24 hrs by DAPI staining based fluorescence microscopy analysis; type: functional, organism-based
Enterococcus faecalis [13] = assay: Induction of morphological changes in biofilm of vancomycin-resistant Enterococcus faecalis ATCC51299 assessed as appearance of destroyed biofilm at 1 to 4 times MIC incubated for 24 hrs by DAPI staining based fluorescence microscopy analysis; type: functional, organism-based
Enterococcus faecalis [14] = assay: Induction of morphological changes in biofilm of vancomycin-resistant Enterococcus faecalis ATCC51299 assessed as appearance of broken biofilm at 1 to 4 times MIC incubated for 24 hrs by DAPI staining based fluorescence microscopy analysis; type: functional, organism-based
Staphylococcus aureus [15] = assay: Antibiofilm activity in methicillin-resistant Staphylococcus aureus assessed as increase in biofilm destruction incubated for 24 hrs by crystal violet staining based analysis; type: functional, organism-based
Enterococcus faecalis [16] = assay: Antibiofilm activity in vancomycin-resistant Enterococcus faecalis ATCC51299 assessed as increase in biofilm destruction incubated for 24 hrs by crystal violet staining based analysis; type: functional, organism-based
Staphylococcus aureus [17] = assay: Induction of morphological changes in methicillin-resistant Staphylococcus aureus assessed as appearance of flocculated bacterial surface at 4 times MIC measured for 5 hrs by field emission scanning electron microscopy based analysis; type: functional, organism-based
Staphylococcus aureus [18] = assay: Induction of morphological changes in methicillin-resistant Staphylococcus aureus assessed as appearance of ruptured bacterial surface at 4 times MIC measured for 5 hrs by field emission scanning electron microscopy based analysis; type: functional, organism-based
Staphylococcus aureus [19] = assay: Induction of morphological changes in methicillin-resistant Staphylococcus aureus assessed as appearance of died bacterial surface at 4 times MIC measured for 5 hrs by field emission scanning electron microscopy based analysis; type: functional, organism-based
Enterococcus faecalis [20] = assay: Induction of morphological changes in vancomycin-resistant Enterococcus faecalis ATCC51299 assessed as appearance of died bacterial surface at 4 times MIC measured for 5 hrs by field emission scanning electron microscopy based analysis; type: functional, organism-based
Enterococcus faecalis [21] = assay: Induction of morphological changes in vancomycin-resistant Enterococcus faecalis ATCC51299 assessed as appearance of ruptured bacterial surface at 4 times MIC measured for 5 hrs by field emission scanning electron microscopy based analysis; type: functional, organism-based
Enterococcus faecalis [22] = assay: Induction of morphological changes in vancomycin-resistant Enterococcus faecalis ATCC51299 assessed as appearance of clustered bacterial surface at 4 times MIC measured for 5 hrs by field emission scanning electron microscopy based analysis; type: functional, organism-based
Enterococcus faecalis [23] = assay: Induction of morphological changes in vancomycin-resistant Enterococcus faecalis ATCC51299 assessed as appearance of flocculated bacterial surface at 4 times MIC measured for 5 hrs by field emission scanning electron microscopy based analysis; type: functional, organism-based
Staphylococcus aureus [24] = assay: Antimicrobial activity against methicillin-resistant Staphylococcus aureus assessed as reduction in bacterial growth in presence of phosphatidylglycerol by checkerboard broth dilution method; type: functional, organism-based
Staphylococcus aureus [25] = assay: Antimicrobial activity against methicillin-resistant Staphylococcus aureus assessed as reduction in bacterial growth in presence of peptidoglycan by checkerboard broth dilution method; type: functional, organism-based
Enterococcus faecalis [26] = assay: Antimicrobial activity against vancomycin-resistant Enterococcus faecalis ATCC51299 assessed as reduction in bacterial growth in presence of peptidoglycan by checkerboard broth dilution method; type: functional, organism-based
Enterococcus faecalis [27] = assay: Antimicrobial activity against vancomycin-resistant Enterococcus faecalis ATCC51299 assessed as reduction in bacterial growth in presence of phosphatidylethanolamine by checkerboard broth dilution method; type: functional, organism-based
Enterococcus faecalis [28] = assay: Antimicrobial activity against vancomycin-resistant Enterococcus faecalis ATCC51299 assessed as reduction in bacterial growth in presence of phosphatidylglycerol by checkerboard broth dilution method; type: functional, organism-based
Staphylococcus aureus [29] = assay: Antimicrobial activity against methicillin-resistant Staphylococcus aureus assessed as increase in cell membrane fluidity at upto 4 times MIC incubated for 35 mins by Laurdan-GP dye based spectramax gemini XPS microplate reader analysis; type: functional, organism-based
Enterococcus faecalis [30] = assay: Antimicrobial activity against vancomycin-resistant Enterococcus faecalis ATCC51299 assessed as increase in cell membrane fluidity at upto 4 times MIC incubated for 35 mins by Laurdan-GP dye based spectramax gemini XPS microplate reader analysis; type: functional, organism-based
Cell membrane [31] = assay: Induction of cell membrane depolarization in methicillin-resistant Staphylococcus aureus assessed as reduction in fluorescence intensity measured for 30 mins by DiSC3(5) dye-based fluorescence assay; type: subcellular
Cell membrane [32] = assay: Induction of cell membrane depolarization in vancomycin-resistant Enterococcus faecalis ATCC51299 assessed as reduction in fluorescence intensity measured for 30 mins by DiSC3(5) dye-based fluorescence assay; type: subcellular
Cell membrane [33] = assay: Induction of cell membrane damage in methicillin-resistant Staphylococcus aureus assessed as increase in ROS accumulation at 4 times MIC incubated for 1 hr by fluorescence based analysis; type: subcellular
Cell membrane [34] = assay: Induction of cell membrane damage in methicillin-resistant Staphylococcus aureus assessed as increase in nucleic acid leakage at 4 times MIC incubated for 2 hrs by absorbance based analysis; type: subcellular
Cell membrane [35] = assay: Induction of cell membrane damage in vancomycin-resistant Enterococcus faecalis ATCC51299 assessed as increase in ROS accumulation at 4 times MIC incubated for 1 hr by fluorescence based analysis; type: subcellular
Cell membrane [36] = assay: Induction of cell membrane damage in vancomycin-resistant Enterococcus faecalis ATCC51299 assessed as increase in nucleic acid leakage at 4 times MIC incubated for 2 hrs by absorbance based analysis; type: subcellular

| SMILES | MBC (Staphylococcus aureus [1]) [mg/L] | MIC (Enterococcus faecalis [2]) [mg/L] | MBC (Enterococcus faecalis [3]) [mg/L] | Activity (RAW264.7) | Activity (Staphylococcus aureus [4]) | Activity (Staphylococcus aureus [5]) | Activity (Enterococcus faecalis [6]) | Activity (Staphylococcus aureus [7]) | Activity (Enterococcus faecalis [8]) | Activity (Staphylococcus aureus [9]) | Activity (Enterococcus faecalis [10]) | Activity (Staphylococcus aureus [11]) | Activity (Staphylococcus aureus [12]) | Activity (Enterococcus faecalis [13]) | Activity (Enterococcus faecalis [14]) | Activity (Staphylococcus aureus [15]) | Activity (Enterococcus faecalis [16]) | Activity (Staphylococcus aureus [17]) | Activity (Staphylococcus aureus [18]) | Activity (Staphylococcus aureus [19]) | further results |
| --- | --- | --- | --- | --- | --- | --- | --- | --- | --- | --- | --- | --- | --- | --- | --- | --- | --- | --- | --- | --- | --- |
| C=CCCCCCCCCCCCc1cc(O)cc(O)c1 | 4 (≈ 13.8 µM) | 4 (≈ 13.8 µM) | 4 (≈ 13.8 µM) | Non-Toxic | Active | Active | Active | Active | Active | inactive | inactive | Active | Active | Active | Active | Dose-Dependent Effect | Dose-Dependent Effect | Active | Active | Active | Activity (Enterococcus faecalis [20]): Active; Activity (Enterococcus faecalis [21]): Active; Activity (Enterococcus faecalis [22]): Active; Activity (Enterococcus faecalis [23]): Active; Activity (Staphylococcus aureus [24]): inactive; Activity (Staphylococcus aureus [25]): Active; Activity (Enterococcus faecalis [26]): inactive; Activity (Enterococcus faecalis [27]): inactive; Activity (Enterococcus faecalis [28]): Active; Activity (Staphylococcus aureus [29]): Active; Activity (Enterococcus faecalis [30]): Active; Activity (Cell membrane [31]): Active; Activity (Cell membrane [32]): Active; Activity (Cell membrane [33]): Active; Activity (Cell membrane [34]): Active; Activity (Cell membrane [35]): Active; Activity (Cell membrane [36]): Active |
| C=CCCCCCCCCCCCc1cc(O)cc(O)c1C(=O)O | 4 (≈ 12 µM) | 4 (≈ 12 µM) | 4 (≈ 12 µM) | Non-Toxic | Active | Active | Active | Active | Active | inactive | inactive | Active | Active | Active | Active | Dose-Dependent Effect | Dose-Dependent Effect | Active | Active | Active | Activity (Enterococcus faecalis [20]): Active; Activity (Enterococcus faecalis [21]): Active; Activity (Enterococcus faecalis [22]): Active; Activity (Enterococcus faecalis [23]): Active; Activity (Staphylococcus aureus [24]): inactive; Activity (Staphylococcus aureus [25]): Active; Activity (Enterococcus faecalis [26]): inactive; Activity (Enterococcus faecalis [27]): inactive; Activity (Enterococcus faecalis [28]): Active; Activity (Staphylococcus aureus [29]): Active; Activity (Enterococcus faecalis [30]): Active; Activity (Cell membrane [31]): Active; Activity (Cell membrane [32]): Active; Activity (Cell membrane [33]): Active; Activity (Cell membrane [34]): Active; Activity (Cell membrane [35]): Active; Activity (Cell membrane [36]): Active |
